The values that follow come from patent publication US20130261178A1, “PHENOXYPROPANOL DERIVATIVES AND THEIR USE IN TREATING CARDIAC AND CARDIOVASCULAR DISEASES” (priority 2010, published 2013).

The target in one data set is T1, human beta3-adrenoceptor (Homo sapiens, UniProt P13945).
T1 construct: expressed in transfected cells; host or cells: CHO cells
Kind of data set: 3H-CGP12177 whole-cell binding, CHO cells expressing human beta3-adrenoceptor. The note with it: 3H-CGP 12177 whole cell binding, log KD, mean ± s.e.mean, read-out: Beta 3 Log KD (converted).

Data set [1] relates to conscious, freely-moving rats. Kind of data set: regional haemodynamics in conscious, freely-moving rats (responses to salbutamol and isoprenaline). The note with it: atropine-treated rats. Format: in vivo, rat. From the text:
Preliminary assessment of the action of one of the compounds of the invention was undertaken using an in vivo model for monitoring regional haemodynamics in conscious, freely-moving rats (Gardiner & Bennett, Am J Physiol. 1988 October; 255(4 Pt 2):H813-24). This model has the distinct advantage of enabling measurement of regional blood flow in addition to blood pressure in the fully conscious state.

In a further data set the target is T2, human beta2-adrenoceptor (Homo sapiens, UniProt P07550).
T2 construct: expressed in transfected cells; host or cells: CHO cells
T2 sequence (P07550 whole entry): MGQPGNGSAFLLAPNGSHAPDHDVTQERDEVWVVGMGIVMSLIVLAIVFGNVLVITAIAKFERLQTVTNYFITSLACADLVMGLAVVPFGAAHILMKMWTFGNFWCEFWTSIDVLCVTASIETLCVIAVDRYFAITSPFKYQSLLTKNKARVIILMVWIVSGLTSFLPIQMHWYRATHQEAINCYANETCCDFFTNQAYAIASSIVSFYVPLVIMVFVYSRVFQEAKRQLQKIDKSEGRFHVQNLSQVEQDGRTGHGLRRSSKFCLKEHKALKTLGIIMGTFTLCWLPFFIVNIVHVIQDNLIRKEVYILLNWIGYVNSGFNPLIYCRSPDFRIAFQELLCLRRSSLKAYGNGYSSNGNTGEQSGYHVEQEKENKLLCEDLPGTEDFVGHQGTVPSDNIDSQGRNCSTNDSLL
Kind of data set: 3H-CGP12177 whole-cell binding, CHO cells expressing human beta2-adrenoceptor. The note with it: 3H-CGP 12177 whole cell binding, mean ± s.e.mean; for Kd: log KD, read-out: Beta 2 Log KD (converted). An excerpt:
(§1) The selectivity of a ligand is given by the ratio of beta-1 to beta-2 KD.

Data set [2] addresses T3, beta1-adrenoceptor (Homo sapiens, UniProt P08588). Kind of data set: 3H-CGP12177 whole-cell binding, CHO cells expressing human beta1-adrenoceptor. Also on record: expressed in transfected cells; host or cells: CHO cells. Conditions: 3H-CGP 12177 whole cell binding, mean ± s.e.mean; for Kd: log KD, read-out: Beta 1 Log KD (converted).
From the text: as §1
Target sequence in this assay (P08588 whole entry): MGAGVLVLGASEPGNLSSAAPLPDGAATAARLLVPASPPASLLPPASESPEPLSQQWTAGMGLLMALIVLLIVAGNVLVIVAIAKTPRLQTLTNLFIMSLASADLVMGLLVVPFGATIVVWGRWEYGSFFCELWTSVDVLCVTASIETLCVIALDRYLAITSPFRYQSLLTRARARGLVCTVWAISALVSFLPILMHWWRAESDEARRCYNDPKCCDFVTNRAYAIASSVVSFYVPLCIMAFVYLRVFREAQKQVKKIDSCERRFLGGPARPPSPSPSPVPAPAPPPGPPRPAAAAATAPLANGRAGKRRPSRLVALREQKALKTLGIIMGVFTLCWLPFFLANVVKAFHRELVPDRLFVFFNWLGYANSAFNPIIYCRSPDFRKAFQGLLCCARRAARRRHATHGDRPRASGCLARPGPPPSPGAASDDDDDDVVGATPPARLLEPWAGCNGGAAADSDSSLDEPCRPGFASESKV

Data set [3] addresses T3, beta1-adrenoceptor. Conditions: background statement; cited from earlier work.
Target sequence in this assay (P08588 whole entry, species assumed): as the sequence (P08588 whole entry) above

Bounds are passed on as bounds.

T1 sequence (P13945 whole entry): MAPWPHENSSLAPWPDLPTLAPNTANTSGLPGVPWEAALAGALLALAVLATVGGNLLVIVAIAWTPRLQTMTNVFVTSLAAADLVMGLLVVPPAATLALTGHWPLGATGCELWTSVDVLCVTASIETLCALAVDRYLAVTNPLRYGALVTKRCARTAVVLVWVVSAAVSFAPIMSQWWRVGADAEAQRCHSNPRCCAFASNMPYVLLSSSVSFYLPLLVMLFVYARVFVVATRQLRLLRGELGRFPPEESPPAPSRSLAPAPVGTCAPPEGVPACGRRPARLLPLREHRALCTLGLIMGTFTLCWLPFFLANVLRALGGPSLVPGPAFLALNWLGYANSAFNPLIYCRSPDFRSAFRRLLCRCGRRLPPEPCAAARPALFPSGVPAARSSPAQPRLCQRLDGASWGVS

One may read the Kd as the constant that tells how readily two partners part at equilibrium. For `O=C(NCCNCC(O)COc1ccc(OCCOCC2CC2)cc1)Nc1ccc(O)cc1` (centres unmarked) [46a], the values for the Kd at human beta3-adrenoceptor, on human beta2-adrenoceptor and at beta1-adrenoceptor [2] were 24.5 µM, above 100 µM and 30.2 nM, respectively. Further, in data set [1] (10 mg/kg i.v.), the “beta1-adrenoceptor selectivity in a conscious rat cardiovascular model” value is “highly beta1-adrenoceptor selective”. For the same compound, the “reflex heart rate response to salbutamol” value in data set [1] (n=4, after 46a 10 mg/kg i.v., before +55±14) is “+7±4 beats/min”. The isoprenaline-induced tachycardia entry in data set [1] (n=4, after 46a 10 mg/kg i.v., before +74±12) was “+11±4 beats/min”. Further, the “increase in hindquarters vascular conductance (salbutamol)” value in data set [1] (n=4, after 46a 10 mg/kg i.v., before +106±20) is given as “+98±15%”. Besides, the “increase in hindquarters vascular conductance (isoprenaline)” value in data set [1] (n=4, after 46a 10 mg/kg i.v., before +126±20) is given as “+129±19%”. In addition, the “hypotension (salbutamol)” value in data set [1] (n=4, after 46a 10 mg/kg i.v., before −11±1) was −11±3 mmHg. Further, in data set [1] (n=4, after 46a 10 mg/kg i.v., before −19±3), the “hypotension (isoprenaline)” value is given as −18±2 mmHg.
Consider `CCOCCOc1ccc(OC[C@@H](O)CNCCc2ccc(OC)c(OC)c2)cc1` [D-140S], for which the β1-selectivity on beta1-adrenoceptor [3] is 4.400 fold.
By melting point is commonly meant the temperature, or range, at which the solid turns liquid. `O=C(NCCNCC(O)COc1ccc(OCCOC2CCCC2)cc1)Nc1ccccc1` (centres unmarked) [47a] displayed a melting point of 109 to 115 °C. Besides, the Kd on human beta3-adrenoceptor is 24 µM. Further, on human beta2-adrenoceptor, the Kd was 3.02 µM. Also, the Kd on beta1-adrenoceptor [2] is 12.6 nM.
Consider `O=C(NCCNCC(O)COc1ccc(OCCOC2CCCC2)cc1)Nc1ccc(F)cc1` (centres unmarked) [47j], for which the melting point fell in the range of 130 to 133 °C. Further, the Kd at human beta3-adrenoceptor was 24.5 µM. Also, the “Beta 2 Log KD” value at human beta2-adrenoceptor was −5.92 ± 0.09. For the same compound, the “Beta 1 Log KD” value on beta1-adrenoceptor [2] is −7.70 ± 0.04.
`O=C(NCCNCC(O)COc1ccc(OCCOC2CCCC2)cc1)Nc1ccc(Cl)cc1` (centres unmarked) [47m] had a melting point of 133 to 140 °C. Further, at human beta3-adrenoceptor, the Kd was 13.5 µM. Further, the “Beta 2 Log KD” value on human beta2-adrenoceptor was −5.91 ± 0.86. Moreover, the “Beta 1 Log KD” value on beta1-adrenoceptor [2] is recorded as −7.95 ± 0.05.
